The text below walks through data of ChEMBL document CHEMBL5528040, “Design and Synthesis of Novel 3-Nitro-1H-1,2,4-triazole-1,2,3-triazole-1,4-disubstituted Analogs as Promising Antitrypanosomatid Agents: Evaluation of In Vitro Activity against Chagas Disease and Leishmaniasis” (J Med Chem, 2024).

A word on the IC50: it is the midpoint of a concentration-inhibition curve. The term CC50 denotes the concentration that lowers cell viability or growth by half. For orientation: pIC50 means the IC50 on a negative log10 scale, so that one unit is a factor of ten.

The structures appear in SMILES notation.

Data set [1] concerns Trypanosoma cruzi. Put plainly: Antitrypanosomal activity against Trypanosoma cruzi Tulahuen amastigotes transfected with Escherichia coli beta-galactosidase LacZ gene infected in monkey LLC-MK2 cells assessed as inhibition of amastigotes growth incubated for 72 hrs by absorbance based microplate reader analysis. The class given is functional, organism-based. The conditions noted are these: LLC-MK2, 72 h.

Data set [2] can be described thus: Cytotoxicity against monkey LLC-MK2 cells incubated for 72 hrs by MTT assay. The class given is toxicity, cell-based, Macaca mulatta. The conditions noted are these: rhesus monkey.
Data set [3] is described as follows: Selectivity index, ratio of CC50 for cytotoxicity against monkey LLC-MK2 cells to IC50 for antitrypanosomal activity against Trypanosoma cruzi Tulahuen amastigotes transfected with Escherichia coli beta-galactosidase LacZ gene infected in monkey LLC-MK2 cells. The format is toxicity, cell-based. As to conditions: read-out: Ratio CC50/IC50.
Another data set has as its system Leishmania amazonensis. Put plainly: Antileishmanial activity against Leishmania amazonensis IFLA/BR/1967/PH8 amastigotes infected in murine peritoneal macrophages incubated for 24 hrs by Giemsa staining based analysis. The format is functional, organism-based. As to conditions: IFLA/BR/1967/PH8, Peritoneal macrophage.
Data set [4] can be described thus: Substrate activity at Trypanosoma cruzi type I nitro reductase assessed as reduction in NADH incubated for 120 sec by spectrophotometric analysis.
For data set [5], the system named is Trypanosoma cruzi. Description: Potency index, ratio of Benznidazole IC50 to test compound IC50 for antitrypanosomal activity against Trypanosoma cruzi Tulahuen amastigotes transfected with Escherichia coli beta-galactosidase LacZ gene infected in monkey LLC-MK2 cells assessed as inhibition of amastigotes growth incubated for 72 hrs by absorbance based microplate reader analysis. The format is functional.

Data set [6] can be described thus: Mutagenicity in Salmonella typhimurium TA98 assessed as number of revertant colonies at 10 ug per plate incubated for 90 mins by AMES test (reference value: 22.67 +/- 0.58). The class given is toxicity, Salmonella enterica subsp. enterica serovar Typhimurium. As to conditions: in vivo, 1.5 h, dose 10 µg.
The nature of data set [7]: Mutagenicity in Salmonella typhimurium TA100 assessed as number of revertant colonies at 2.5 ug per plate incubated for 90 mins by AMES test (reference value: 88.00 +/- 2.65). The class given is toxicity, Salmonella enterica subsp. enterica serovar Typhimurium. As to conditions: in vivo, 1.5 h, dose 2.5 µg.

Regarding `O=[N+]([O-])c1cccc(-n2cc(Cn3cnc([N+](=O)[O-])n3)nn2)c1`, the IC50 in the data set on Trypanosoma cruzi [1] amounted to 24.4 µM; in the data set with Leishmania amazonensis it was 4.7 µM. In data set [2], the CC50 at 72 h was above 50 µM. Further, in data set [3], the selectivity ratio is above 4.1.
Regarding `CSc1ccc(-n2cc(Cn3cnc([N+](=O)[O-])n3)nn2)cc1`, the figures for the IC50 in the data set with Trypanosoma cruzi [1] and with Leishmania amazonensis were 0.21 µM and 4.7 µM, respectively. Besides, the CC50 at 72 h in data set [2] is above 50 µM. For the same molecule, the selectivity ratio in data set [3] is above 238. For the same molecule, the pIC50 in data set [4] came to 6.67.
The matching figures for `O=[N+]([O-])c1ncn(Cc2cn(-c3ccc(Oc4ccccc4)cc3)nn2)n1`: 0.07 µM, 4.7 µM, above 50 µM, above 714 and 7.15.
Regarding `COc1cc(-n2cc(Cn3cnc([N+](=O)[O-])n3)nn2)cc(OC)c1OC`, the IC50 came to 2.89 µM in the data set on Trypanosoma cruzi [1] and 4.7 µM in the data set with Leishmania amazonensis. Moreover, the CC50 at 72 h in data set [2] was above 50 µM. The selectivity ratio in data set [3] was above 17.3.
In the case of `O=[N+]([O-])c1ncn(Cc2cn(-c3ccccc3)nn2)n1`, the IC50 was 1.35 µM with Trypanosoma cruzi [1] and 4.7 µM in the data set with Leishmania amazonensis. The molecule also registered a CC50 at 72 h in data set [2] above 50 µM. Besides, in data set [3], the selectivity ratio was above 37. Also, the pIC50 in data set [4] worked out at 5.86.
Take `O=[N+]([O-])c1ncn(Cc2cn(-c3cccc(Cl)c3)nn2)n1`: the figures for the IC50 with Trypanosoma cruzi [1] and with Leishmania amazonensis were 5.72 µM and 4.7 µM, respectively. In data set [2], this molecule gave a CC50 at 72 h above 50 µM. In addition, the selectivity ratio in data set [3] is above 8.74.
For `O=[N+]([O-])c1ncn(Cc2cn(-c3cccc(C(F)(F)F)c3)nn2)n1`, in that order: 5.8 µM, 4.7 µM, above 50 µM and above 17.2.
As to `COc1ccc(-n2cc(Cn3ccnc3[N+](=O)[O-])nn2)cc1OC`, the IC50 in the data set with Trypanosoma cruzi [1] was found to be 0.65 µM.
Regarding `N#Cc1cccc(-n2cc(Cn3cnc([N+](=O)[O-])n3)nn2)c1`, the IC50 amounted to 7.35 µM in the data set on Trypanosoma cruzi [1] and 4.7 µM in the data set on Leishmania amazonensis. In addition, in data set [2], the CC50 at 72 h was above 50 µM. Besides, the selectivity ratio in data set [3] is above 6.8.
The matching figures for `O=[N+]([O-])c1ncn(Cc2cn(-c3ccc(Cl)c(C(F)(F)F)c3)nn2)n1`: 9.89 µM, 4.7 µM, above 50 µM and above 5.05.
Turning to `NS(=O)(=O)c1ccc(-n2cc(Cn3cnc([N+](=O)[O-])n3)nn2)cc1`, the IC50 was above 50 µM with Trypanosoma cruzi [1] and 4.7 µM in the data set on Leishmania amazonensis. In data set [2], this molecule gave a CC50 at 72 h above 50 µM. Further, the selectivity ratio in data set [3] is above 1.
For the molecule `O=[N+]([O-])c1ncn(Cc2cn(-c3ccc(Cl)cc3)nn2)n1`, the IC50 with Trypanosoma cruzi [1] is 0.31 µM; with Leishmania amazonensis it was 4.7 µM. For the same molecule, the CC50 at 72 h in data set [2] was above 50 µM. For the same molecule, the selectivity ratio in data set [3] is above 161. In data set [4], the pIC50 came out at 6.5.
Regarding `CS(=O)(=O)c1ccc(-n2cc(Cn3cnc([N+](=O)[O-])n3)nn2)cc1`, the IC50 was above 50 µM in the data set on Trypanosoma cruzi [1] and 4.7 µM with Leishmania amazonensis. The molecule further had a CC50 at 72 h in data set [2] above 50 µM. Further, the selectivity ratio in data set [3] is above 1.
As for `COc1cc(OC)cc(-n2cc(Cn3cnc([N+](=O)[O-])n3)nn2)c1`, the IC50 was 0.22 µM in the data set with Trypanosoma cruzi [1] and 4.7 µM in the data set with Leishmania amazonensis. The cytotoxic concentration (CC50) at 72 h in data set [2] is above 50 µM. The selectivity ratio in data set [3] is above 227. For the same molecule, the pIC50 in data set [4] is listed as 6.65.
The matching figures for `Cc1ccc(-n2cc(Cn3cnc([N+](=O)[O-])n3)nn2)cc1`: 0.33 µM, 4.7 µM, above 50 µM, above 152 and 6.48.
Regarding `O=[N+]([O-])c1ncn(Cc2cn(-c3ccc(Cl)c(Cl)c3)nn2)n1`, the IC50 came out at 0.11 µM in the data set on Trypanosoma cruzi [1] and 4.7 µM in the data set on Leishmania amazonensis. In data set [2], this molecule had a CC50 at 72 h above 50 µM. Further, the selectivity ratio in data set [3] is above 454. For the same molecule, in the data set on Trypanosoma cruzi [5], the “Ratio IC50” value is given as “<=55”. Besides, the pIC50 in data set [4] was 6.95.
In the case of `COc1cccc(-n2cc(Cn3cnc([N+](=O)[O-])n3)nn2)c1`, the IC50 with Trypanosoma cruzi [1] worked out at 7.93 µM; in the data set on Leishmania amazonensis it was 4.7 µM. The molecule further gave a CC50 at 72 h in data set [2] above 50 µM. Moreover, in data set [3], the selectivity ratio is above 6.3.
The matching figures for `O=C(O)c1cccc(-n2cc(Cn3cnc([N+](=O)[O-])n3)nn2)c1`: above 50 µM, 4.7 µM, above 50 µM and above 1.
For the molecule `O=[N+]([O-])c1ncn(Cc2cn(-c3ccc4c(c3)OCO4)nn2)n1`, the IC50 with Trypanosoma cruzi [1] was found to be 13.8 µM; with Leishmania amazonensis, 89.5 µM. Moreover, the CC50 at 72 h in data set [2] is above 50 µM. In data set [3], the selectivity ratio is above 3.62.
Regarding `COc1ccc(-n2cc(Cn3cnc([N+](=O)[O-])n3)nn2)cc1OC`, the IC50 in the data set with Trypanosoma cruzi [1] was 1.12 µM; in the data set on Leishmania amazonensis, 4.7 µM. For the same molecule, in data set [2], the CC50 at 72 h was above 50 µM. Moreover, in data set [3], the selectivity ratio is above 44.6. Further, the pIC50 in data set [4] is reported as 5.95.
Turning to `O=C(O)c1ccc(-n2cc(Cn3cnc([N+](=O)[O-])n3)nn2)cc1`, the IC50 was above 50 µM in the data set on Trypanosoma cruzi [1] and 4.7 µM in the data set on Leishmania amazonensis. In addition, the CC50 at 72 h in data set [2] is above 50 µM. Also, the selectivity ratio in data set [3] is above 1.
`N#Cc1ccc(-n2cc(Cn3cnc([N+](=O)[O-])n3)nn2)cc1`: the IC50 in the data set with Trypanosoma cruzi [1] worked out at 1.45 µM; in the data set on Leishmania amazonensis, 4.7 µM. For the same molecule, the CC50 at 72 h in data set [2] was above 50 µM. In addition, the selectivity ratio in data set [3] was above 34.5.
On to `Nc1ccc([N+](=O)[O-])cc1N`, for which the Activity in data set [6] stood at 253.
Consider `CCOC(=O)c1ccc(-n2cc(Cn3cnc([N+](=O)[O-])n3)nn2)cc1`, for which the figures for the IC50 with Trypanosoma cruzi [1] and in the data set with Leishmania amazonensis were 38.4 µM and 4.7 µM, respectively. Further, the CC50 at 72 h in data set [2] is above 50 µM. For the same molecule, in data set [3], the selectivity ratio is above 1.3.
Consider `O=[N+]([O-])c1ccc(-n2cc(Cn3cnc([N+](=O)[O-])n3)nn2)cc1`, for which the IC50 in the data set with Trypanosoma cruzi [1] is 0.61 µM; in the data set with Leishmania amazonensis it was 4.7 µM. Moreover, the CC50 at 72 h in data set [2] is above 50 µM. Besides, the selectivity ratio in data set [3] was above 82. Moreover, the pIC50 in data set [4] came out at 6.21.
For the molecule `COc1ccc(-n2cc(Cn3cnc([N+](=O)[O-])n3)nn2)cc1`, the values for the IC50 in the data set with Trypanosoma cruzi [1] and in the data set with Leishmania amazonensis were 0.84 µM and 4.7 µM, respectively. For the same molecule, in data set [2], the half-maximal cytotoxic concentration (CC50) at 72 h is above 50 µM. In data set [3], the selectivity ratio was above 59.5. Moreover, the pIC50 in data set [4] turned out to be 6.07.
The matching figures for `O=[N+]([O-])c1ncn(Cc2cn(-c3ccc(F)cc3)nn2)n1`: 1.11 µM, 4.7 µM, above 50 µM, above 45 and 5.95.
Consider `O=C(Cn1ccnc1[N+](=O)[O-])NCc1ccccc1` [BENZNIDAZOLE], for which the half-maximal cytotoxic concentration (CC50) at 72 h in data set [2] is above 50 µM. The selectivity ratio in data set [3] is above 8.13.
Take `O=[N+]([O-])c1ncn(Cc2cn(-c3ccc(C(F)(F)F)cc3)nn2)n1`: the half-maximal inhibitory concentration (IC50) amounted to 3.6 µM in the data set with Trypanosoma cruzi [1] and 4.7 µM in the data set on Leishmania amazonensis. Besides, in data set [2], the CC50 at 72 h is above 50 µM. The selectivity ratio in data set [3] was above 27.9.
For `O=[N+]([O-])c1ncn(Cc2cn(-c3ccc(F)c(F)c3)nn2)n1`, in that order: 22.6 µM, 4.7 µM, above 50 µM and above 4.4.
In the case of `Nc1ccc2cc3ccccc3cc2c1` [2-AMINOANTHRACENE], the Activity in data set [7] came out at 977.33.
